In patent publication US10532065B2, “Bisphosphonic acid derivative and application for same” (NAGASAKI UNIVERSITY, priority 2014, dated 2020):
pEC50, pIC50: −log10 of the molar value. Like-named read-outs stand apart in the source and are kept apart here.

Assays:
Assay type in all cases: cell-based
[1] = test system: EJ-1 cells; test: EJ-1 cell growth inhibition (direct antitumor action, CellTiterGlo); details: for pIC50: EJ-1 (bladder cancer) growth inhibition, 4 days culture; for direct antitumor activity (in words): EJ-1 growth inhibition
Method: (§1) The direct antitumor action of bisphosphonic acid POM ester and bisphosphonic acid was studied by comparison using U937.
(§2) The direct antitumor action of bisphosphonic acid POM ester derivatives and bisphosphonic acids was studied by comparison using EJ-1. It was performed in the same manner as in Experimental Example 1 except that EJ-1 was used as the cell to be used. For recovery of the cells, a conventional EDTA trypsin treatment was performed.
as §2, with “POM esters” for “POM ester derivatives”, “Example 2” for “Example 1”
(§3) The direct antitumor action of various bisphosphonic acid POM esters was studied by comparison using U937 and EJ-1. The measurement was performed according to Experimental Example 2 and Experimental Example 4.

[2] = test system: U937 cells; test: U937 cell growth inhibition (direct antitumor action, CellTiterGlo); details: for pIC50: U937 cell growth inhibition, 4 days culture; for direct antitumor activity (in words): U937 growth inhibition
Method: as §1, §3

[3] = test system: EJ-1 cells / γδ T cells; test: TNF-α production from γδ T cells stimulated by compound-pretreated EJ-1 cells (indirect antitumor action, ELISA); details: for pEC50: EJ-1 pretreated 4 hr with compound, 16 hr with γδ T cells, TNF-α ELISA, read-out: TNF-α50; for TNF-α production induction activity (in words): EJ-1 pretreated with compound, γδ T cells
Method: The indirect antitumor action of bisphosphonic acid POM esters and bisphosphonic acids was studied by comparison using EJ-1. In principle, EJ-1 is treated with a compound, washed, and reacted with γδ T cells, and the cytotoxic ability is studied by comparison, by quantifying TNF-α produced by γδ T cells during cell disordering. TNF-α is generally used as an index of γδ T cell induction ability and/or proliferative capacity, and γδ T cells are considered to be induced and/or proliferated in proportion to the TNF-α amount (Journal of Immunology, 154, 5986-5994 (1995)). Since the produced TNF-α is what is called a tumor necrosis factor, it is considered to have an action to lower proliferation of cancer cells or induce cell death.
Thereto was added a solution (500 μl) of compounds 3, 5, 6, 7, which are bisphosphonic acid POM ester derivatives, obtained by serially diluting 10 mM stock solution 10-fold from 20 μM, or a solution (500 μl) of bisphosphonic acid 10, 12, 13, 14 compound obtained by serially diluting 10-fold from 200 μM, and the cells were suspended well. These conical tubes were stood at 37° C. for 4 hr, and the cells were washed 3 times with 5 ml of culture medium. To these cells was added 500 μl of medium, and the cells were suspended well. […] The cell culture medium was suspended well, and the plate was centrifuged at 1,700 rpm, 4° C. for 2 min and the culture supernatant (150 μl) was taken and placed in another round-bottomed 96 well plate. The plate was frozen at −80° C. overnight, left standing at room temperature for 1 hr, stirred well and 100 μl thereof was subjected to ELISA of TNF-α. The content of TNF-α was calculated from the analytical curve of TNF-α. These were performed in triplicate, and a graph showing bisphosphonic acid POM ester derivative and the corresponding bisphosphonic acid as one pair was plotted. […] The results of bisphosphonic acid POM ester derivative are shown by -●-, and the results of bisphosphonic acid are shown by -◯-.
The indirect antitumor action of bisphosphonic acid POM esters and bisphosphonic acids was quantitatively studied by comparison using EJ-1. […] Thereto was added a solution (500 μl) of a bisphosphonic acid POM ester derivative obtained by serially diluting 10 mM stock solution 10-fold from 20 μM, or a bisphosphonic acid solution (500 μl) serially diluted 10-fold from 200 μM was added, and the cells were suspended well. These conical tubes were stood at 37° C. for 4 hr, and the cells were washed 3 times with 5 ml of culture medium. To these cells was added 500 μl of medium, and the cells were suspended well. […] The cell culture medium was suspended well, and the plate was centrifuged at 1,700 rpm, 4° C. for 2 min and the culture supernatant (150 μl) was taken and placed in another round-bottomed 96 well plate. The plate was frozen at −80° C. overnight, left standing at room temperature for 1 hr, stirred well and 100 μl thereof was subjected to ELISA of TNF-α. The content of TNF-α was calculated from the analytical curve of TNF-α. These were performed in triplicate, and a half of the concentration of compounds 1-7, which are bisphosphonic acid POM ester derivatives, and compounds 8-14, which are bisphosphonic acids, necessary for producing the maximum amount of TNF-α from γδ T cells was calculated as TNF-α50, and summarized in Table 6.
Therefore, the TNF-α50 value of various bisphosphonic acid POM ester derivatives was calculated. […] Thereto was added a solution (500 μl) of compounds 1-7 and 15-39, which are bisphosphonic acid POM ester derivatives, and compound 42, which is other bisphosphonic acid ester derivative, obtained by serially diluting 10 mM stock solution 10-fold from 20 μM, and the cells were suspended well. These conical tubes were stood at 37° C. for 4 hr, and the cells were washed 3 times with 5 ml of culture medium. To these cells was added 500 μl of medium, and the cells were suspended well. […]

| SMILES | pIC50 [1] | pIC50 [2] | pEC50 [3] | pIC50 ([1]; EJ1, 96 h) | pIC50 ([2]; Homo sapiens, U-937, 96 h) | pEC50 ([3]; EJ1) | direct antitumor activity (in words) [1] | direct antitumor activity (in words) [2] | TNF-α production induction activity (in words) [3] |
| --- | --- | --- | --- | --- | --- | --- | --- | --- | --- |
| CC(C)(C)C(=O)OCOP(=O)(OCOC(=O)C(C)(C)C)C(CNc1cccc(Br)n1)P(=O)(OCOC(=O)C(C)(C)C)OCOC(=O)C(C)(C)C [Compound 21, tetrakispivaloyloxymethyl 2-(6-bromopyridin-2-ylamino)ethylidene-1,1-bisphosphonate] | 5.05 | 5.21 | < 5.00 |  |  |  |  |  |  |
| CC(C)(C)C(=O)OCOP(=O)(OCOC(=O)C(C)(C)C)C(CNc1ncccc1Br)P(=O)(OCOC(=O)C(C)(C)C)OCOC(=O)C(C)(C)C [Compound 2, tetrakispivaloyloxymethyl 2-(3-bromopyridin-2-ylamino)ethylidene-1,1-bisphosphonate] | 5.64 | 6.17 | 5.35 |  |  |  | high activity | high activity |  |
| CN(CC(P(=O)(OCOC(=O)C(C)(C)C)OCOC(=O)C(C)(C)C)P(=O)(OCOC(=O)C(C)(C)C)OCOC(=O)C(C)(C)C)c1ccccn1 [Compound 1, tetrakispivaloyloxymethyl 2-(methylpyridin-2-ylamino)ethylidene-1,1-bisphosphonate] | 4.96 | 5.28 | 6.26 |  |  |  |  |  |  |
| Cc1cccc(NCC(P(=O)(OCOC(=O)C(C)(C)C)OCOC(=O)C(C)(C)C)P(=O)(OCOC(=O)C(C)(C)C)OCOC(=O)C(C)(C)C)n1 [Compound 20, tetrakispivaloyloxymethyl 2-(6-methylpyridin-2-ylamino)ethylidene-1,1-bisphosphonate] | 4.80 | 5.16 | 5.43 |  |  |  |  |  |  |
| CCCCCCCCc1ccc(NCC(P(=O)(OCOC(=O)C(C)(C)C)OCOC(=O)C(C)(C)C)P(=O)(OCOC(=O)C(C)(C)C)OCOC(=O)C(C)(C)C)nc1 [Compound 22, tetrakispivaloyloxymethyl 2-(5-octanylpyridin-2-ylamino)ethylidene-1,1-bisphosphonate] | 5.43 | 5.47 | 5.32 |  |  |  |  |  |  |
| Cc1ccnc(NCC(P(=O)(OCOC(=O)C(C)(C)C)OCOC(=O)C(C)(C)C)P(=O)(OCOC(=O)C(C)(C)C)OCOC(=O)C(C)(C)C)c1 [Compound 16, tetrakispivaloyloxymethyl 2-(4-methylpyridin-2-ylamino)ethylidene-1,1-bisphosphonate] | 4.82 | 5.17 | 5.29 |  |  |  |  |  |  |
| O=P(O)(O)C(CNc1ncccn1)P(=O)(O)O [Compound 13, 2-(pyrimidin-2-ylamino)ethylidene-1,1-bisphosphonic Acid, reference compound] |  |  |  | 4.64 | 3.82 | 4.32 |  |  |  |
| CC(C)(C)C(=O)OCOP(=O)(OCOC(=O)C(C)(C)C)C(CNc1ncccn1)P(=O)(OCOC(=O)C(C)(C)C)OCOC(=O)C(C)(C)C [Compound 6, tetrakispivaloyloxymethyl 2-(pyrimidin-2-ylamino)ethylidene-1,1-bisphosphonate] | 7.05 | 5.62 | 7.10 |  |  |  | high activity | high activity | high activity |

Second part, led by results:

| pIC50 [1] | pIC50 [2] | pEC50 [3] | pIC50 ([1]; EJ1, 96 h) | pIC50 ([2]; Homo sapiens, U-937, 96 h) | pEC50 ([3]; EJ1) | SMILES | direct antitumor activity (in words) [1] | direct antitumor activity (in words) [2] | TNF-α production induction activity (in words) [3] |
| --- | --- | --- | --- | --- | --- | --- | --- | --- | --- |
| 7.23 | 6.19 | 7.21 |  |  |  | CC(C)(C)C(=O)OCOP(=O)(OCOC(=O)C(C)(C)C)C(CNc1ccncn1)P(=O)(OCOC(=O)C(C)(C)C)OCOC(=O)C(C)(C)C [Compound 39, tetrakispivaloyloxymethyl 2-(pyrimidin-4-ylamino)ethylidene-1,1-bisphosphonate] | particularly high activity | particularly high activity | high activity |
| 5.38 | 5.30 | 5.44 |  |  |  | Cc1csc(NCC(P(=O)(OCOC(=O)C(C)(C)C)OCOC(=O)C(C)(C)C)P(=O)(OCOC(=O)C(C)(C)C)OCOC(=O)C(C)(C)C)n1 [Compound 33, tetrakispivaloyloxymethyl 2-(4-methylthiazol-2-ylamino)ethylidene-1,1-bisphosphonate] |  |  |  |
|  |  |  | 4.80 | 4.77 | 5.15 | CC(=O)OCOP(=O)(OCOC(C)=O)C(CNc1ccccn1)P(=O)(OCOC(C)=O)OCOC(C)=O [Compound 42, tetrakisacetyloxymethyl 2-(pyridin-2-ylamino) ethylidene-1,1-bisphosphonate] |  |  |  |
| 5.77 | 5.66 | 5.80 |  |  |  | CC(C)(C)C(=O)OCOP(=O)(OCOC(=O)C(C)(C)C)C(Cn1ccc2cccnc21)P(=O)(OCOC(=O)C(C)(C)C)OCOC(=O)C(C)(C)C [Compound 31, tetrakispivaloyloxymethyl 2-(7-azaindol-1-yl)ethylidene-1,1-bisphosphonate] | high activity | high activity |  |
| 4.92 | 5.20 | 5.36 |  |  |  | CC(C)(C)C(=O)OCOP(=O)(OCOC(=O)C(C)(C)C)C(CNc1cc[nH]n1)P(=O)(OCOC(=O)C(C)(C)C)OCOC(=O)C(C)(C)C [Compound 32, tetrakispivaloyloxymethyl 2-(pyrazol-3-ylamino) ethylidene-1,1-bisphosphonate] |  |  |  |
| 5.20 | 5.52 | < 5.00 |  |  |  | CCCCCCCCc1cccc(NCC(P(=O)(OCOC(=O)C(C)(C)C)OCOC(=O)C(C)(C)C)P(=O)(OCOC(=O)C(C)(C)C)OCOC(=O)C(C)(C)C)n1 [Compound 24, tetrakispivaloyloxymethyl 2-(6-octanylpyridin-2-ylamino)ethylidene-1,1-bisphosphonate] |  |  |  |
| 4.82 | 5.10 | 5.10 |  |  |  | CC(C)(C)C(=O)OCOP(=O)(OCOC(=O)C(C)(C)C)C(CNc1ccon1)P(=O)(OCOC(=O)C(C)(C)C)OCOC(=O)C(C)(C)C [Compound 36, tetrakispivaloyloxymethyl 2-(isoxazol-3-ylamino)ethylidene-1,1-bisphosphonate] |  |  |  |
| 5.06 | 5.15 | < 5.00 |  |  |  | CC(C)(C)C(=O)OCOP(=O)(OCOC(=O)C(C)(C)C)C(CNc1ncccc1-c1ccc(F)cc1)P(=O)(OCOC(=O)C(C)(C)C)OCOC(=O)C(C)(C)C [Compound 26, tetrakispivaloyloxymethyl 2-[3-(4-fluorophenyl)pyridin-2-ylamino]ethylidene-1,1-bisphosphonate] |  |  |  |
| 5.22 | 5.15 | 5.19 |  |  |  | CC(C)(C)C(=O)OCOP(=O)(OCOC(=O)C(C)(C)C)C(CNc1cc(Br)ccn1)P(=O)(OCOC(=O)C(C)(C)C)OCOC(=O)C(C)(C)C [Compound 28, tetrakispivaloyloxymethyl 2-(4-bromopyridin-2-ylamino)ethylidene-1,1-bisphosphonate] |  |  |  |
